Results from publication PMC6736568, “Discovery of Novel Anti-cryptosporidial Activities From Natural Products by in vitro High-Throughput Phenotypic Screening” (Frontiers in Microbiology, 2019).
Where a name gives a salt, the structure may show the parent alone. Read-outs that look alike come from different tables or passages of the source.

Columns and labels:
Cryptosporidium parvum = assay: qRT-PCR assay of the growth of C. parvum in vitro in HCT-8 host cells (primary and secondary screening, EC50); assay type: cell-based; settings: for % Inhibition (3.3 uM): secondary screening at 3.3 uM
[1] = primary screening at 10 uM, from Hs18S ΔCT
[2] = primary screening at 10 uM, treated vs control

Molecule	Inhibition (%) (Cryptosporidium parvum; primary screening at 10 uM)	% Inhibition (3.3 uM) (Cryptosporidium parvum)	Cytotoxicity (%) (HCT-8 host cells (Hs18S); [1])	Hs18S ΔCT (HCT-8 host cells (Hs18S); [2])	Hs18S ΔCT (HCT-8 host cells (Hs18S))	Cytotoxicity (%) (HCT-8 host cells (Hs18S); 10 µM)	Inhibition (%) (Cryptosporidium parvum; 10 µM)
COc1cc2c(cc1OC)Cc1cc(OC)c(OC)cc1Cc1cc(OC)c(OC)cc1C2 [CYCLOVERATRYLENE]	83.81%	-85%	-2.2%	-0.03	–	–	–
O=c1c(O)c(-c2ccc(O)c(O)c2)oc2c(O[C@@H]3O[C@H](CO)[C@@H](O)[C@H](O)[C@H]3O)c(O)cc(O)c12 [GOSSYPIN]	-22.05%	–	-4.8%	-0.07	–	–	–
O.O=C(O)[C@@H]1[C@H]2C[C@H]3c4[nH]c5ccccc5c4CCN3C[C@@H]2CC[C@@H]1O [YOHIMBIC ACID HYDRATE]	-21.23%	–	-20.7%	-0.27	–	–	–
C[C@@H]1CC[C@@]2(OC1)O[C@H]1C[C@H]3[C@@H]4CC[C@@H]5C[C@@H](O)CC[C@]5(C)[C@H]4CC[C@]3(C)[C@H]1[C@@H]2C [SMILAGENIN]	13.52%	–	33.2%	0.58	–	–	–
CC1=CC(=O)[C@H]2C(C)(C)CCC[C@]2(C)[C@@]1(O)CCc1ccoc1 [SOLIDAGENONE]	-14.64%	–	39.6%	0.73	–	–	–
C[N+](C)(C)CCO.[Cl-] [CHOLINE CHLORIDE]	20.98%	–	–	–	0.33	20.6	–
CC(=O)O[C@H]1C[C@@H](OC(C)=O)C(C)(C)C2CC(=O)[C@]3(C)C(CC[C@@]4(C)[C@H](c5ccoc5)OC(=O)[C@H]5O[C@]543)[C@]21C (stereo partly shown) [7-DEACETOXY-7-OXOKHIVORIN]	40.16%	–	13.5%	0.21	–	–	–
O.O=c1ccc2cc(O[C@@H]3OC(CO)[C@@H](O)[C@@H](O)C3O)c(O)cc2o1 (stereo partly shown) [ESCULIN MONOHYDRATE]	10.62%	–	-34.0%	-0.42	–	–	–
CC1(C)[C@@H](O[C@H]2O[C@H](C(=O)O)[C@@H](O)[C@H](O)[C@H]2O[C@@H]2O[C@H](C(=O)O)[C@@H](O)[C@H](O)[C@H]2O)CC[C@]2(C)[C@H]3C(=O)C=C4[C@@H]5C[C@@](C)(C(=O)O)CC[C@]5(C)CC[C@@]4(C)[C@]3(C)CC[C@@H]12.N [GLYCYRRHIZIC ACID, AMMONIUM SALT]	1.41%	–	-43.6%	-0.52	–	–	–
C=CCCCCCCCCCCCC(O)CC(O)COC(C)=O (stereo not shown) [AVOCADENE ACETATE]	-0.39%	–	-38.4%	-0.47	–	–	–
COC(=O)[C@H]1[C@H]2C[C@H]3c4[nH]c5ccccc5c4CCN3C[C@@H]2CC[C@@H]1O [CORYNANTHINE]	-58.95%	–	-53.1%	-0.61	–	–	–
CC[C@H]1OC(=O)C[C@@H](O)[C@H](C)[C@@H](O[C@@H]2O[C@H](C)[C@@H](O[C@H]3C[C@@](C)(O)[C@@H](O)[C@H](C)O3)[C@H](N(C)C)[C@H]2O)[C@@H](CC=O)C[C@@H](C)C(=O)/C=C/C(C)=C/[C@@H]1CO[C@@H]1O[C@H](C)[C@@H](O)[C@@H](OC)[C@H]1OC [TYLOSIN TARTRATE]	25.75%	–	-14.2%	-0.19	–	–	–
CC(C)CCC[C@@H](C)[C@H]1CC[C@H]2[C@@H]3CC[C@H]4C[C@@H](O)CC[C@]4(C)[C@H]3CC[C@]12C [5alpha-CHOLESTANOL]	-23.23%	–	-2.4%	-0.03	–	–	–
C=CCCCCCCCCCCCc1ccco1 [AVOCADENOFURAN]	-21.47%	–	-32.5%	-0.41	–	–	–
C[C@H](CC(=O)[C@@H]1OC1(C)C)[C@H]1C(=O)C[C@@]2(C)C3=CC[C@H]4C(C)(C)[C@@H](O[C@@H]5OC[C@@H](O)[C@H](O)[C@H]5O)CC[C@@]45C[C@@]35[C@@H](O)C[C@]12C [CIMICIFUGOSIDE H1]	58.34%	–	69.4%	1.71	–	–	–
CC(=O)Oc1ccc2c(C)cc(=O)oc2c1 [ACETYL HYMETOCHROME]	-35.81%	–	-4.5%	-0.06	–	–	–
COc1cc2c(cc1-c1cc3cc4ccoc4cc3oc1=O)OCO2 [PACHYRRHIZIN]	29.77%	–	-6.0%	-0.08	–	–	–
DEGUELIN(-)	45.04%	–	34.2%	0.60	–	–	–
CC(=O)[C@@]1(O)CC[C@H]2[C@@H]3CCC4=CC(=O)CC[C@]4(C)[C@H]3CC[C@@]21C [HYDROXYPROGESTERONE]	-50.17%	–	22.7%	0.37	–	–	–
CASANTHRANOL [CASANTHRANOL [cascaroside A shown]]	50.17%	–	–	–	–	15.4%	–
CC(=O)O[C@@H]1CC2C(C)(CC[C@H](O)C2(C)C)C2CC[C@]3(C)C(=CC(=O)O[C@H]3c3ccoc3)C21C (stereo partly drawn) [3beta-HYDROXYDEOXODIHYDRODEOXYGEDUNIN]	77.26%	-21%	-19.7%	-0.26	–	–	–
3-ACETYLGEDUNOL	-40.49%	–	56.3%	1.19	–	–	–

Molecule	Inhibition (%) (Cryptosporidium parvum; primary screening at 10 uM)	% Inhibition (3.3 uM) (Cryptosporidium parvum)	Cytotoxicity (%) (HCT-8 host cells (Hs18S); [1])	Hs18S ΔCT (HCT-8 host cells (Hs18S); [2])	Hs18S ΔCT (HCT-8 host cells (Hs18S))	Cytotoxicity (%) (HCT-8 host cells (Hs18S); 10 µM)	Inhibition (%) (Cryptosporidium parvum; 10 µM)
COc1cc2occ(-c3ccc(OC)c(OC)c3OC)c(=O)c2cc1OC [6,7,2',3',4'-PENTAMETHOXYISOFLAVONE]	39.55%	–	-30.1%	-0.38	–	–	–
C[C@@H]1C[C@H](O)[C@@]2(O)[C@]13CC(=O)OC[C@@]2(C)[C@@](C)(O)C(=O)C3 [PSEUDO-ANISATIN]	-5.73%	–	9.2%	0.14	–	–	–
CC(C)CCC[C@@H](C)[C@H]1CC[C@H]2[C@@H]3CC=C4C[C@@H](OC(=O)c5ccccc5)CC[C@]4(C)[C@H]3CC[C@]12C [CHOLESTERYL BENZOATE]	-14.05%	–	5.3%	0.08	–	–	–
BICUCULLINE(-) METHIODIDE	-0.49%	–	-4.9%	-0.07	–	–	–
CC(=O)OCC1=C(C(=O)O)N2C(=O)[C@@H](N)[C@H]2SC1 [7-AMINOCEPHALOSPORANIC ACID]	-11.44%	–	12.1%	0.19	–	–	–
CC(=O)OCC(OC(C)=O)C(OC(C)=O)C(OC(C)=O)C(OC(C)=O)C(COC(C)=O)OC(C)=O (stereo not shown) [PERSEITOL HEPTAACETATE]	0.17%	–	-10.1%	-0.14	–	–	–
POMIFERIN TRIMETHYL ETHER	-34.33%	–	11.4%	0.17	–	–	–
CC1(C)C2CC(=O)[C@]3(C)C(CC[C@@]4(C)[C@H](c5ccoc5)OC(=O)C5OC543)[C@@]2(C)[C@@H](O)C[C@H]1O (stereo partly shown)	69.64%	3%	4.7%	0.07	–	–	–
O=C(O[C@@H]1Cc2c(O)cc(O)cc2O[C@@H]1c1cc(O)c(O)c(O)c1)c1cc(O)c(O)c(O)c1 [EPIGALLOCATECHIN-3-MONOGALLATE]	10.02%	–	-14.2%	-0.19	–	–	–
C[C@]12C=CC(=O)C=C1CC[C@@H]1[C@@H]2CC[C@]2(C)C(=O)CC[C@@H]12 [ANDROSTA-1,4-DIEN-3,17-DIONE]	15.07%	–	0.7%	0.01	–	–	–
CC(=O)O[C@H]1C[C@@H](OC(C)=O)C(C)(C)[C@@H]2C[C@@H](OC(C)=O)[C@@]3(C)C4=CC(=O)O[C@@H](c5ccoc5)[C@]4(C)CC[C@@H]3[C@@]12C [DEOXYKHIVORIN]	27.34%	–	7.7%	0.11	–	–	–
COc1ccc(/C=C/C(=O)c2ccc(O)cc2O)cc1 [2',4'-DIHYDROXY-4-METHOXYCHALCONE]	14.88%	–	-99.8%	-1.00	–	–	–
COc1ccc([C@@H]2CC(=O)c3c(O)cc(O[C@@H]4O[C@H](CO[C@@H]5O[C@@H](C)[C@H](O)[C@@H](O)[C@H]5O)[C@@H](O)[C@H](O)[C@H]4O)cc3O2)cc1O [HESPERIDIN]	66.25%	36%	21.5%	0.35	–	–	–
NCCc1ccc(O)c(O)c1 [3-HYDROXYTYRAMINE]	–	6%	–	–	0.76	41.1	–
COc1cc([C@@H]2c3cc4c(cc3[C@H](OC(C)=O)[C@H]3COC(=O)[C@H]23)OCO4)cc(OC)c1OC [PODOPHYLLIN ACETATE]	72.02%	64%	33.2%	0.58	–	–	–
C/C1=C\CC/C(C)=C/CC(C)(C)/C=C/C1	-30.91%	–	0.1%	0.00	–	–	–
BERBAMINE HYDROCHLORIDE	6.86%	–	-15.6%	-0.21	–	–	–
CC(=O)[C@H]1CC[C@H]2[C@@H]3CCC4C[C@H](O)CC[C@]4(C)[C@H]3C[C@H](O)[C@]12C (stereo partly drawn) [DIHYDROXY (3alpha,12alpha)PREGNAN-20-ONE]	-32.59%	–	-29.0%	-0.37	–	–	–
C=C(C)CCCC(C)CCOC(C)=O (stereo not shown) [RHODINYL ACETATE]	-15.58%	–	10.9%	0.17	–	–	–
C[C@H]1CC[C@@H](C(C)(C)O)CC2=C1CC[C@@H]2C [GUAIOL(-)]	–	–	–	–	0.20	12.7	-22.71
O=C[C@H](O)[C@H](O)CO [ERYTHROSE]	57.20%	–	14.6%	0.23	–	–	–
NC[C@H]1O[C@H](O[C@H]2[C@H](O[C@@H]3O[C@H](CO)[C@@H](O)[C@H]3O)[C@@H](O)[C@H](N)C[C@@H]2N)[C@H](N)[C@@H](O)[C@@H]1O.O=S(=O)(O)O [RIBOSTAMYCIN SULFATE]	-35.94%	–	-2.0%	-0.03	–	–	–
